{"source": "ChEMBL document CHEMBL1130454", "about": "“Synthesis and antirheumatic activity of novel tetrahydroquinoline-8-carboxylic acid derivatives” (1997)", "type_in_all_cases": "functional", "key": {"Rattus norvegicus [1]": {"system": "Rattus norvegicus", "assay": "Tested for edema suppression rate with respect to control value in adjuvant arthritis rat at a dose of 50 mg/Kg; Range = 31-40%"}, "Rattus norvegicus [2]": {"system": "Rattus norvegicus", "assay": "Tested for edema suppression rate with respect to control value in adjuvant arthritis rat at a dose of 50 mg/Kg; Range = >50%"}, "Rattus norvegicus [3]": {"system": "Rattus norvegicus", "assay": "Tested for edema suppression rate with respect to control value in adjuvant arthritis rat; Range = 0-20%"}, "Rattus norvegicus [4]": {"system": "Rattus norvegicus", "assay": "Tested for edema suppression rate with respect to control value in adjuvant arthritis rat at a dose of 10 mg/Kg; Range = 31-40%"}, "Rattus norvegicus [5]": {"system": "Rattus norvegicus", "assay": "Tested for edema suppression rate with respect to control value in adjuvant arthritis rat at a dose of 10 mg/Kg; Range = 21-30%"}, "Rattus norvegicus [6]": {"system": "Rattus norvegicus", "assay": "Tested for edema suppression rate with respect to control value in adjuvant arthritis rat at a dose of 10 mg/Kg; Range = 41-50%"}, "Rattus norvegicus [7]": {"system": "Rattus norvegicus", "assay": "Tested for edema suppression rate with respect to control value in adjuvant arthritis rat at a dose of 50 mg/Kg; Range = 21-30%"}}, "data": [{"smiles": "CNc1ccc([N+](=O)[O-])cc1C(=O)O", "values": [{"measurement": "inhibition in vivo at 50 mg/kg", "setting": "Rattus norvegicus [1]", "value": 40, "unit": "%"}]}, {"smiles": "O=C(O)c1cc([N+](=O)[O-])cc2c1NCCC2", "values": [{"measurement": "inhibition in vivo at 50 mg/kg", "setting": "Rattus norvegicus [2]", "value": "> 50", "unit": "%"}]}, {"smiles": "O=C(O)c1cc([N+](=O)[O-])cc2c1NCC2", "values": [{"measurement": "Inhibition", "setting": "Rattus norvegicus [3]", "value": 20, "unit": "%"}]}, {"smiles": "O=C(O)c1cc2c(c(C(=O)O)c1)NCCC2", "values": [{"measurement": "inhibition in vivo at 10 mg/kg", "setting": "Rattus norvegicus [4]", "value": 40, "unit": "%"}]}, {"smiles": "O=C(O)c1cccc2c1NC(c1ccccc1)CO2", "note": "(stereo unspecified)", "values": [{"measurement": "inhibition in vivo at 10 mg/kg", "setting": "Rattus norvegicus [4]", "value": 40, "unit": "%"}]}, {"smiles": "O=C(O)c1cc2c(c(C(=O)O)c1)NCCS2", "values": [{"measurement": "Inhibition", "setting": "Rattus norvegicus [3]", "value": 20, "unit": "%"}]}, {"smiles": "O=C(O)c1cc([N+](=O)[O-])ccc1NCc1ccccc1", "values": [{"measurement": "Inhibition", "setting": "Rattus norvegicus [3]", "value": 20, "unit": "%"}]}, {"smiles": "Nc1ccc(Cl)cc1C(=O)O", "values": [{"measurement": "Inhibition", "setting": "Rattus norvegicus [3]", "value": 20, "unit": "%"}]}, {"smiles": "O=C(O)c1cc([N+](=O)[O-])cc2c1NCCCC2", "values": [{"measurement": "inhibition in vivo at 10 mg/kg", "setting": "Rattus norvegicus [5]", "value": 30, "unit": "%"}]}, {"smiles": "CS(=O)(=O)Nc1cc2c(c(C(=O)O)c1)NCCCC2", "values": [{"measurement": "inhibition in vivo at 50 mg/kg", "setting": "Rattus norvegicus [1]", "value": 40, "unit": "%"}]}, {"smiles": "O=C(O)Cc1cc2c(c(C(=O)O)c1)NCCC2", "values": [{"measurement": "inhibition in vivo at 10 mg/kg", "setting": "Rattus norvegicus [6]", "value": 50, "unit": "%"}]}, {"smiles": "O=C(O)c1cc([N+](=O)[O-])cc2c1NC(c1ccccc1)CC2", "note": "(stereo unspecified)", "values": [{"measurement": "Inhibition", "setting": "Rattus norvegicus [3]", "value": 20, "unit": "%"}]}, {"smiles": "O=C(O)c1cc([N+](=O)[O-])cc2c1NCCO2", "values": [{"measurement": "Inhibition", "setting": "Rattus norvegicus [3]", "value": 20, "unit": "%"}]}, {"smiles": "O=C(O)c1cc(Br)c(Cl)c2c1NCCO2", "values": [{"measurement": "inhibition in vivo at 50 mg/kg", "setting": "Rattus norvegicus [7]", "value": 30, "unit": "%"}]}, {"smiles": "O=C(O)c1cc(Cl)cc2c1NCCS2", "values": [{"measurement": "Inhibition", "setting": "Rattus norvegicus [3]", "value": 20, "unit": "%"}]}, {"smiles": "Nc1ccc([N+](=O)[O-])cc1C(=O)O", "values": [{"measurement": "inhibition in vivo at 10 mg/kg", "setting": "Rattus norvegicus [5]", "value": 30, "unit": "%"}]}]}
